Measurements as given in patent US8383637B2, “2-amino-quinazoline derivatives useful as inhibitors of β-secretase (BACE)” (Jansssen Pharmaceutica N.V., priority 2004, dated 2013).

Biological target: T1, β-secretase(BACE) (Homo sapiens, UniProt P56817)
T1 construct: purchased Panvera
Assay: BACE FS1% Inhibition Assay
Type: biochemical
Conditions: FS1 substrate
How it was run: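 Human BACE (4 μg/mL working solution) preincubated 20 min at room temperature with compound, then FS1 substrate (300 μg/mL working solution) added and incubated 1 h at room temperature. Percent inhibition calculated at each compound concentration against blank and vehicle controls.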

T1 sequence (P56817 46-501): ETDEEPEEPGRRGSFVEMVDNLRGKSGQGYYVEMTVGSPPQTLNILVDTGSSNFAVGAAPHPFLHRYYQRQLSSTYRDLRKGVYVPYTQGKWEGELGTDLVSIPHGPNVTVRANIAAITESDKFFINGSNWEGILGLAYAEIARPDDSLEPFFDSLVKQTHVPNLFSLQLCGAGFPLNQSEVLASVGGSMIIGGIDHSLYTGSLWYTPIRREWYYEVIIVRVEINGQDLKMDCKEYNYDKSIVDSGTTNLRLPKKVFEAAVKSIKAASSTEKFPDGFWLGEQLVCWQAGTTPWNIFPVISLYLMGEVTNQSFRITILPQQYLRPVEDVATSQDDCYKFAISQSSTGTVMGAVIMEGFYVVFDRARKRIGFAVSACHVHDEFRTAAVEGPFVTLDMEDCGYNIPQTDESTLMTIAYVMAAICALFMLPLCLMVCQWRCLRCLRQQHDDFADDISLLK

| SMILES | % Inhibition (FS) 0.3 μM (0.3 μM test compound) [%] | % Inhibition (FS) 1 μM (1 μM test compound) [%] | % Inhibition (FS) 3 μM (3 μM test compound) [%] | inhibition at 0.3 µM (0.3 μM test compound, read-out: % Inhibition (FS) 0.3 μM) [%] | inhibition at 1 µM (1 μM test compound, read-out: % Inhibition (FS) 1 μM) [%] | inhibition at 3 µM (3 μM test compound, read-out: % Inhibition (FS) 3 μM) [%] |
| --- | --- | --- | --- | --- | --- | --- |
| CCc1ccccc1-c1ccc2c(c1)CN(Cc1cccc(C(=O)N(C)C3CCCCC3)c1)C(N)=N2 [Compound 320] | −31 | <30 | <30 | – | – | – |
| CN(C(=O)c1cccc(CN2Cc3cc(-c4ccccc4-c4ccccc4)ccc3N=C2N)c1)C1CCCCC1 [Compound 321] | −33 | <30 | <30 | – | – | – |
| CSc1ccccc1-c1ccc2c(c1)CN(Cc1cccc(C(=O)N(C)C3CCCCC3)c1)C(N)=N2 [Compound 322] | <30 | <30 | 95 | – | – | – |
| CC(=O)c1ccccc1-c1ccc2c(c1)CN(Cc1cccc(C(=O)N(C)C3CCCCC3)c1)C(N)=N2 [Compound 323] | <30 | <30 | 45 | – | – | – |
| CN(C(=O)c1cccc(CN2Cc3cc(-c4ccccc4Oc4ccccc4)ccc3N=C2N)c1)C1CCCCC1 [Compound 326] | <30 | 35 | 79 | – | – | – |
| CN(C(=O)c1cccc(CN2Cc3cc(-c4ccccc4OCc4ccccc4)ccc3N=C2N)c1)C1CCCCC1 [Compound 327] | <30 | <30 | 48 | – | – | – |
| CC(c1ccccc1)c1ccc2c(c1)CN(Cc1cccc(C(=O)N(C)C3CCCCC3)c1)C(N)=N2 (stereo not drawn) [Compound 332] | <30 | <30 | <30 | – | – | – |
| NC1=Nc2ccc(Oc3ccccc3)cc2CN1C(CC(=O)NC1CC2CCC1C2)C1CCCCC1 (stereo not drawn) [Compound 400, 3-(2-Amino-6-phenoxy-4H-quinazolin-3-yl)-N-bicyclo[2.2.1]hept-2-yl-3-cyclohexyl-propionamide] | – | – | – | < 30 | < 30 | 94 |
| CC(C)C(CC(=O)NC1CCCCC1)N1Cc2cc(Oc3ccccc3)ccc2N=C1N (stereo not drawn) [Compound 401] | <30 | <30 | 52 | – | – | – |
| CC(C)C(CC(=O)NC1C2CC3CC(C2)CC1C3)N1Cc2cc(Oc3ccccc3)ccc2N=C1N (stereo not drawn) [Compound 402] | <30 | 53 | 99 | – | – | – |
| NC1=Nc2ccc(Oc3ccccc3)cc2CN1CCCNC1CCCCC1 [Compound 403] | <30 | <30 | 66 | – | – | – |
| Cc1cccc(Sc2ccc3c(c2)CN(Cc2cccc(C(=O)N(C)C4CCCCC4)c2)C(N)=N3)c1 [Compound 405] | 43 | 106 | 118 | – | – | – |
| CCc1ccccc1Sc1ccc2c(c1)CN(Cc1cccc(C(=O)N(C)C3CCCCC3)c1)C(N)=N2 [Compound 406] | <30 | <30 | 50 | – | – | – |
| CC(C)c1ccc(Sc2ccc3c(c2)CN(Cc2cccc(C(=O)N(C)C4CCCCC4)c2)C(N)=N3)cc1 [Compound 407] | <30 | <30 | 48 | – | – | – |
| Cc1ccc(Sc2ccc3c(c2)CN(Cc2cccc(C(=O)N(C)C4CCCCC4)c2)C(N)=N3)cc1C [Compound 408] | <30 | 34 | 95 | – | – | – |
| Cc1cc(C)cc(Sc2ccc3c(c2)CN(Cc2cccc(C(=O)N(C)C4CCCCC4)c2)C(N)=N3)c1 [Compound 409] | <30 | <30 | 72 | – | – | – |
| COc1ccc(Sc2ccc3c(c2)CN(Cc2cccc(C(=O)N(C)C4CCCCC4)c2)C(N)=N3)cc1 [Compound 410] | <30 | 39 | 50 | – | – | – |
| COc1ccc(Sc2ccc3c(c2)CN(Cc2cccc(C(=O)N(C)C4CCCCC4)c2)C(N)=N3)cc1OC [Compound 411] | <30 | <30 | 55 | – | – | – |
| COc1ccccc1Sc1ccc2c(c1)CN(Cc1cccc(C(=O)N(C)C3CCCCC3)c1)C(N)=N2 [Compound 412] | <30 | <30 | 49 | – | – | – |

| SMILES | % Inhibition (FS) 0.3 μM (0.3 μM test compound) [%] | % Inhibition (FS) 1 μM (1 μM test compound) [%] | % Inhibition (FS) 3 μM (3 μM test compound) [%] | inhibition at 0.3 µM (0.3 μM test compound, read-out: % Inhibition (FS) 0.3 μM) [%] | inhibition at 1 µM (1 μM test compound, read-out: % Inhibition (FS) 1 μM) [%] | inhibition at 3 µM (3 μM test compound, read-out: % Inhibition (FS) 3 μM) [%] |
| --- | --- | --- | --- | --- | --- | --- |
| CSc1ccc(Sc2ccc3c(c2)CN(Cc2cccc(C(=O)N(C)C4CCCCC4)c2)C(N)=N3)cc1 [Compound 413] | <30 | <30 | 53 | – | – | – |
| CN(C(=O)c1cccc(CN2Cc3cc(Sc4cccc5ccccc45)ccc3N=C2N)c1)C1CCCCC1 [Compound 414] | <30 | <30 | 27 | – | – | – |
| CN(C(=O)c1cccc(CN2Cc3cc(Sc4ccc5ccccc5c4)ccc3N=C2N)c1)C1CCCCC1 [Compound 415] | <30 | <30 | 63 | – | – | – |
| CNC(=O)c1ccccc1Sc1ccc2c(c1)CN(Cc1cccc(C(=O)N(C)C3CCCCC3)c1)C(N)=N2 [Compound 416] | <30 | <30 | −3 | – | – | – |
| CC(=O)Nc1ccc(Sc2ccc3c(c2)CN(Cc2cccc(C(=O)N(C)C4CCCCC4)c2)C(N)=N3)cc1 [Compound 417] | <30 | <30 | 78 | – | – | – |
| CN(C(=O)CCC(c1ccc(-c2ccccc2)cc1)N1Cc2cc(Oc3ccccc3)ccc2N=C1N)C1CCCCC1 (stereo not drawn) [Compound 420] | <30 | <30 | 53 | – | – | – |
| NC1=Nc2ccc(Oc3ccccc3)cc2CN1CCNCC1CCCCC1 [Compound 427] | <30 | 26 | 62 | – | – | – |
| CN(CCN1Cc2cc(Oc3ccccc3)ccc2N=C1N)C1CCCCC1 [Compound 429] | <30 | <30 | <30 | – | – | – |
| COc1cccc(Nc2ccc3c(c2)CN(Cc2cccc(C(=O)N(C)C4CCCCC4)c2)C(N)=N3)c1 [Compound 433] | <30 | 33 | 88 | – | – | – |
| COc1ccc(Nc2ccc3c(c2)CN(Cc2cccc(C(=O)N(C)C4CCCCC4)c2)C(N)=N3)cc1 [Compound 434] | <30 | <30 | <30 | – | – | – |
| Cc1cccc(Nc2ccc3c(c2)CN(Cc2cccc(C(=O)N(C)C4CCCCC4)c2)C(N)=N3)c1 [Compound 435] | <30 | <30 | 85 | – | – | – |
| CN(C(=O)c1cccc(CN2Cc3cc(Nc4ccc5ccccc5c4)ccc3N=C2N)c1)C1CCCCC1 [Compound 436] | <30 | 37 | 50 | – | – | – |
| CN(C(=O)c1cccc(CN2Cc3cc(Nc4ccc(C5CCCCC5)cc4)ccc3N=C2N)c1)C1CCCCC1 [Compound 437] | <30 | <30 | 38 | – | – | – |
| CN(C)c1ccc(Nc2ccc3c(c2)CN(Cc2cccc(C(=O)N(C)C4CCCCC4)c2)C(N)=N3)cc1 [Compound 438] | <30 | <30 | <30 | – | – | – |
| CN(C(=O)c1cccc(CN2Cc3cc(Nc4ccc(N5CCOCC5)cc4)ccc3N=C2N)c1)C1CCCCC1 [Compound 439] | <30 | <30 | <30 | – | – | – |
| CCOc1cccc(Nc2ccc3c(c2)CN(Cc2cccc(C(=O)N(C)C4CCCCC4)c2)C(N)=N3)c1 [Compound 440] | <30 | 35 | 72 | – | – | – |
| CN(C(=O)c1cccc(CN2Cc3cc(Nc4ccc5c(c4)OCO5)ccc3N=C2N)c1)C1CCCCC1 [Compound 441] | <30 | 29 | 48 | – | – | – |
| CSc1ccc(Nc2ccc3c(c2)CN(Cc2cccc(C(=O)N(C)C4CCCCC4)c2)C(N)=N3)cc1 [Compound 442] | <30 | 58 | 101 | – | – | – |
